Laboratory results from ChEMBL document CHEMBL1156829 (Proc Natl Acad Sci U S A, 2008).

What was measured:
[1] = tested on: Plasmodium falciparum; test: NOVARTIS: Inhibition of Plasmodium falciparum 3D7 (drug-susceptible) proliferation in erythrocyte-based infection assay; type: functional, organism-based; settings: Plasmodium falciparum, 3D7
[2] = tested on: Plasmodium falciparum; test: NOVARTIS: Inhibition of Plasmodium falciparum W2 (drug-resistant) proliferation in erythrocyte-based infection assay; type: functional, organism-based; settings: Plasmodium falciparum, W2; read-out: EC50
[3] = NOVARTIS: Cytotoxicity against human hepatocellular carcinoma cell line (Huh7); type: toxicity, cell-based, Huh-7; settings: Huh7 cells (hepatocellular carcinoma cell line)

O=C1/C(=N\c2cccc(O)c2)C(N2CCCCC2)=C(O)c2ccccc21
EC50 [1]: 212 nM
EC50 [2]: 227 nM
CC50 [3]: > 100000 nM

CN(C)c1ccc2c(c1)Sc1cc(N(C)C)ccc1N2C(=O)c1ccccc1
EC50 [1]: 218 nM
EC50 [2]: 232 nM
CC50 [3]: > 100000 nM

CC(=O)OCC(=O)[C@@]1(O)CCC2C3CCC4=CC(=O)CC[C@]4(C)C3[C@@H](O)C[C@@]21C (stereo partly drawn)
EC50 [1]: > 1250 nM
EC50 [2]: < 23 nM
CC50 [3]: > 10000 nM

Cc1nn(CC(O)Cn2c3ccc(Br)cc3c3cc(Br)ccc32)c(C)c1Br (stereo not drawn)
EC50 [1]: 769 nM
EC50 [2]: 177 nM
CC50 [3]: 75200 nM

CS(=O)(=O)N1CCCCC1C(=O)NCc1ccc(OC2CCN(CC(c3ccccc3)c3ccccc3)CC2)cc1 (stereo not drawn)
EC50 [1]: 1020 nM
EC50 [2]: 22.9 nM
CC50 [3]: > 10000 nM

c1ccc2cc3c(N4CCN(CCN5CCN(c6ccnc7cc8ccccc8cc67)CC5)CC4)ccnc3cc2c1
EC50 [1]: 176 nM
EC50 [2]: 228 nM
CC50 [3]: > 100000 nM

CSc1nc2nc(C)c(Cc3cccc(C(F)(F)F)c3)c(C)n2n1
EC50 [1]: 270 nM
EC50 [2]: 224 nM
CC50 [3]: > 100000 nM

CSc1ccc(C=CC(=O)NC(=O)c2ccccc2O)cc1
EC50 [1]: 243 nM
EC50 [2]: 225 nM
CC50 [3]: > 100000 nM

Clc1ccc(-c2c[n+](-c3ccccc3)c3n2CCS3)cc1
EC50 [1]: 308 nM
EC50 [2]: 236 nM
CC50 [3]: > 100000 nM

Cc1ccc(NC(=O)N(CCCN(C)C)Cc2cc3cc4c(cc3[nH]c2=O)OCO4)cc1
EC50 [1]: 1300 nM
EC50 [2]: 236 nM
CC50 [3]: > 100000 nM

Cc1cc(NCCc2ccccc2)nc2cc(O)ccc12
EC50 [1]: 377 nM
EC50 [2]: 69.5 nM
CC50 [3]: 29500 nM

CCc1c(C)c(C#N)c2nc3ccccc3n2c1Nc1ccc(C)c(Cl)c1
EC50 [1]: 1090 nM
EC50 [2]: 233 nM
CC50 [3]: > 100000 nM

CC(=O)c1ccc(N2CCN(Cc3cc(-c4ccnc5cc(Cl)ccc45)ccc3O)CC2)cc1
EC50 [1]: 2810 nM
EC50 [2]: 228 nM
CC50 [3]: > 100000 nM

CCc1cc2c3c(c1)C1(C(=O)N3C(C)(C)CC2C)C(C#N)=C(N)Oc2cc(C)oc(=O)c21 (stereo not drawn)
EC50 [1]: 1470 nM
EC50 [2]: 228 nM
CC50 [3]: > 100000 nM

C=CCSc1nc2sc3c(c2c(=O)n1-c1ccccc1)CCN(C)C3
EC50 [1]: 632 nM
EC50 [2]: 228 nM
CC50 [3]: > 100000 nM

O=C(c1cc2cc(Br)ccc2o1)N1CCc2c([nH]c3ccccc23)C1c1ccc(Cl)cc1 (stereo not drawn)
EC50 [1]: 887 nM
EC50 [2]: 226 nM
CC50 [3]: > 100000 nM

CCOC(=O)C1=C(C)NC2=C(C(=O)C(C(=O)OCC)C(c3ccc(OC)cc3)C2)C1c1ccc(OC)c(OC)c1 (stereo not drawn)
EC50 [1]: 275 nM
EC50 [2]: 178 nM
CC50 [3]: > 76600 nM

CC1CN(C(=O)c2sc3cccc(F)c3c2Cl)CC(C)O1 (stereo not drawn)
EC50 [1]: 299 nM
EC50 [2]: 232 nM
CC50 [3]: > 100000 nM

CN1CCN(c2ccc(Nc3ccnc4cc(Cl)ccc34)cc2Cl)CC1
EC50 [1]: 35.8 nM
EC50 [2]: 54.7 nM
CC50 [3]: > 23700 nM

Cc1ccc(S(=O)(=O)NCCCCNc2ccnc3cc(Cl)ccc23)cc1
EC50 [1]: 575 nM
EC50 [2]: < 20.4 nM
CC50 [3]: > 9020 nM

O=C(Nc1ccc(-c2ccc(Cl)cc2)cc1)c1cccs1
EC50 [1]: 285 nM
EC50 [2]: 225 nM
CC50 [3]: > 100000 nM

OCC1CCCCN1Cc1cc(-c2ccccc2)ccc1O (stereo not drawn)
EC50 [1]: 1030 nM
EC50 [2]: < 23.2 nM
CC50 [3]: > 10000 nM

COc1ccc(OC)c(-c2ccc(O)c(CNCCc3ccc(F)cc3)c2)c1
EC50 [1]: 1050 nM
EC50 [2]: < 23.2 nM
CC50 [3]: > 10000 nM

C[n+]1ccccc1C=Cc1ccc(Br)cc1
EC50 [1]: 352 nM
EC50 [2]: 221 nM
CC50 [3]: 95200 nM

COc1cccc(-c2ccc(O)c(CN3CCC(Cc4ccccc4)CC3)c2)n1
EC50 [1]: 306 nM
EC50 [2]: 86.1 nM
CC50 [3]: 38400 nM

O=C(Cc1ccsc1)N1CCOc2c(cc(-c3csc4ccccc34)cc2OCCc2ccccn2)C1
EC50 [1]: 379 nM
EC50 [2]: 223 nM
CC50 [3]: > 100000 nM

c1cncc(CCNc2nccn3c(-c4ccc5ccccc5c4)cnc23)c1
EC50 [1]: 115 nM
EC50 [2]: 81.2 nM
CC50 [3]: 34400 nM

CCOC(=O)c1nnn(-c2nonc2N)c1-c1ccc(Br)cc1
EC50 [1]: 287 nM
EC50 [2]: 230 nM
CC50 [3]: > 100000 nM

CCOc1ccccc1-n1c(N)c(C(=O)Nc2ccc(F)cc2)sc1=S
EC50 [1]: 968 nM
EC50 [2]: 230 nM
CC50 [3]: > 100000 nM

COc1ccc2nc3cc(Cl)ccc3c(NCCCN(CCCN)CCCCN)c2c1
EC50 [1]: 78.6 nM
EC50 [2]: 22.3 nM
CC50 [3]: > 10000 nM

CC1CNC(c2ccc(NC(=O)c3ccc(C(=O)Nc4ccc(C5=NC(C)CN5)cc4)c(N)c3)cc2)=N1 (stereo not drawn)
EC50 [1]: 47 nM
EC50 [2]: 22.2 nM
CC50 [3]: > 10000 nM

Brc1ccc(C=Cc2cc[n+](Cc3ccccc3)cc2)cc1
EC50 [1]: 139 nM
EC50 [2]: 103 nM
CC50 [3]: 47300 nM

O=[N+]([O-])c1cc(C(F)(F)F)ccc1N1CCCN(C(=S)Nc2cccc(C(F)(F)F)c2)CC1
EC50 [1]: 149 nM
EC50 [2]: 130 nM
CC50 [3]: 55000 nM

CCCCCCn1c(=O)c(C(=O)NCC[N+](CC)(CC)CC)c(O)c2ccccc21
EC50 [1]: 506 nM
EC50 [2]: 236 nM
CC50 [3]: > 100000 nM

CCOC(=O)C1=C(C)NC2=C(C(=O)C(C(=O)OCC)C(c3ccccc3OC)C2)C1c1sccc1C (stereo not drawn)
EC50 [1]: 984 nM
EC50 [2]: 235 nM
CC50 [3]: > 100000 nM

Oc1ccc(-c2ccccc2)cc1CNC1CCCCC1
EC50 [1]: 982 nM
EC50 [2]: < 23.5 nM
CC50 [3]: > 10000 nM

CCc1nc2nc(C)cc(Nc3ccc4c(c3)OCCO4)n2n1
EC50 [1]: 360 nM
EC50 [2]: 219 nM
CC50 [3]: > 100000 nM

CCOc1ccc(-c2c[n+](-c3ccccc3)c3n2CCS3)cc1
EC50 [1]: 421 nM
EC50 [2]: 228 nM
CC50 [3]: > 100000 nM

Cc1onc(-c2ccccc2)c1C(=O)N1CCC(CNc2c(-c3ccoc3)nc3ccccn23)CC1
EC50 [1]: 1760 nM
EC50 [2]: 225 nM
CC50 [3]: 96600 nM

OCc1nc2ccccc2n1CCOc1ccccc1
EC50 [1]: > 1250 nM
EC50 [2]: 23.3 nM
CC50 [3]: > 10000 nM

COc1ccc(-n2c(COc3cccc4ccccc34)nnc2SC)cc1
EC50 [1]: 524 nM
EC50 [2]: 236 nM
CC50 [3]: > 100000 nM

Cc1nc2c(c(C)nn2C)c(C)c1CCC(=O)N1CCCC1
EC50 [1]: 360 nM
EC50 [2]: < 15.8 nM
CC50 [3]: > 6850 nM

COc1cc2c(cc1OC)C1=NC(=O)C(C(C)C)N1C(SCc1csc(Cl)n1)=N2 (stereo not drawn)
EC50 [1]: > 1420 nM
EC50 [2]: 31.6 nM
CC50 [3]: 14300 nM

O=C(NC1CC1)c1ccc(OC2CCN(CC3CCCCC3)CC2)c(Cl)c1
EC50 [1]: 119 nM
EC50 [2]: 50.3 nM
CC50 [3]: 22600 nM

CCSc1ccc2ccccc2[n+]1CC
EC50 [1]: 179 nM
EC50 [2]: 227 nM
CC50 [3]: > 100000 nM

Oc1ccc(-c2cccnc2)cc1CNCC1CC2C=CC1C21CC1 (stereo not drawn)
EC50 [1]: 835 nM
EC50 [2]: < 23.3 nM
CC50 [3]: > 10000 nM

COC(=O)CC(NS(=O)(=O)c1ccc(OC)cc1)c1ccc2c(c1)OCO2 (stereo not drawn)
EC50 [1]: 1460 nM
EC50 [2]: < 23.4 nM
CC50 [3]: > 10300 nM

Oc1ccc(-c2ccc3c(c2)OCO3)cc1CNC12CC3CC(CC(C3)C1)C2
EC50 [1]: 832 nM
EC50 [2]: 225 nM
CC50 [3]: > 100000 nM

COc1ccc2c(c1OC)C(=O)N1c3ccccc3N=C(c3ccc(I)cc3)CC21 (stereo not drawn)
EC50 [1]: 416 nM
EC50 [2]: 223 nM
CC50 [3]: > 100000 nM

Cc1nc(N(C)c2ccc(C(C)C)cc2)c2c(C)c(C(=O)Nc3cc(C)on3)sc2n1
EC50 [1]: 248 nM
EC50 [2]: 236 nM
CC50 [3]: > 100000 nM

Cc1ccc(N(C)C(=O)CCNS(=O)(=O)c2cc(Br)cnc2N)cc1
EC50 [1]: 1920 nM
EC50 [2]: 224 nM
CC50 [3]: > 100000 nM
